Assay results taken from US9550796B2, “Pyrrolopyrrolone derivatives and their use as BET inhibitors” (NOVARTIS AG, priority 2013, dated 2017).

What was measured:
BRD4 = BRD4 (Homo sapiens (Human), UniProt O60885); assay: TR-FRET in-vitro binding assay for BRD4; conditions: 45 nM His-Brd4(44-477), acetyl-histone H4 (AcK 5, 8, 12, 16) peptide
Method: (§1) TR-FRET In-Vitro Binding Assays for BRD2, BRD3, and BRD4: All assays were performed in 384-well microtiter plates. […] Liquid handling and incubation steps were done on an Innovadyne Nanodrop Express equipped with a robotic arm (Thermo CatX, Perkin Elmer/Caliper Twister II) and an incubator (Liconic STX40, Thermo Cytomat 2C450). The assay plates were prepared by addition of 50 nl per well of compound solution in 90% DMSO HummingBird nanodispenser (Zinsser Analytic). […] Reactions were incubated at 30° C. for 35 minutes. […] After 35 minutes incubation at 30° C., plates were measured in a Perkin Elmer EnVision multilabel reader. […] The stock solutions were stored at […] if not used immediately. For the test procedure the vials were defrosted and identified by a scanner whereby a working sheet was generated that guided the subsequent working steps. Compound dilutions were made in 96 well plates. This format enabled the assay of maximally […] at 8 concentrations (single points) including 4 reference compounds, if desired (known BET inhibitors from the prior art, for this and other assays of the type disclosed herein). The dilution protocol included the production of “pre-dilution plates”, “master plates” and “assay plates”. Polypropylene 96-well plates were used as pre-dilution plates. […] All dilution steps were done on a HamiltonSTAR robot. […] Identical “assay plates” were then prepared by pipetting 50 nL each of compound dilutions of the “master plates” into 384-well “assay plates” by means of a HummingBird 384-channel dispenser. These plates were used directly for the assay which was performed in a total volume of 13.55 μL.

BRD3 = BRD3 (Homo sapiens (Human), UniProt Q15059); assay: TR-FRET in-vitro binding assay for BRD3; conditions: 45 nM His-Brd3(20-477), acetyl-histone H4 (AcK 5, 8, 12, 16) peptide
Method: as §1

CREBBP = CREBBP (Homo sapiens (Human), UniProt Q92793); assay: AlphaScreen in-vitro binding assay for CREBBP; conditions: 324 nM His-CREBBP (1081-1197), acetyl-histone H4 (AcK 5, 8, 12) peptide
Method: AlphaScreen In-Vitro Binding Assay for CREBBP
In order to assess bromodomain selectivity, we set up a binding assay using the bromodomain encoded by the CREBBP gene. […] The assay was started by stepwise addition of 4.5 μL per well of bromo domain protein (50 mM HEPES, pH 7.5, 0.005% Tween20, 0.02% BSA, 150 mM NaCl, 324 nM His-CREBBP (1081-1197) (custom production at Viva Biotech Ltd.)) and 4.5 μL per well of peptide solution (50 mM HEPES, pH 7.5, 0.005% Tween20, 0.02% BSA, 150 mM NaCl, 120 nM acetyl-histone H4 (AcK 5, 8, 12) (Biosyntan GmbH)). Reactions were incubated at 30° C. for 35 minutes. Subsequently 4.5 μL per well detection mix (50 mM HEPES, pH 7.5, 0.005% Tween20, 0.02% BSA, 150 mM NaCl, 45 μg/ml Ni-chelate acceptor beads, 45 μg/mL streptavidin-donor beads) (Perkin Elmer)) were added. After 60 minutes incubation at room temperature, plates were measured in a Perkin Elmer EnVision multilabel reader. IC50 values were determined from percent inhibition values at different compound concentrations by non-linear regression analysis.
Test compounds were dissolved in DMSO (10 mM) and transferred into 1.4 mL flat bottom or V-shaped Matrix tubes carrying a unique 2D matrix. The stock solutions were stored at […] if not used immediately. For the test procedure the vials were defrosted and identified by a scanner whereby a working sheet was generated that guided the subsequent working steps. Compound dilutions were made in 96 well plates. This format enabled the assay of maximally […] at 8 concentrations (single points) including 4 reference compounds, if desired (known BET inhibitors from the prior art, for this and other assays of the type disclosed herein). The dilution protocol included the production of “pre-dilution plates”, “master plates” and “assay plates”.
Polypropylene 96-well plates were used as pre-dilution plates. A total of 4 pre-dilution plates were prepared including 10 test compounds each on the plate positions A1-A10, one standard compound at A11 and one DMSO control at […]. All dilution steps were done on a HamiltonSTAR robot.
30 μL of individual compound dilutions including standard compound and controls of the 4 “pre-dilution plates” were transferred into a 384-well “master plate” including the following concentrations 10000, […], 1000, 300, 100, 30, 10 and 3 μM, respectively in 90% of DMSO.
Identical “assay plates” were then prepared by pipetting 50 nL each of compound dilutions of the “master plates” into 384-well “assay plates” by means of a HummingBird 384-channel dispenser. These plates were used directly for the assay which was performed in a total volume of 13.55 μL.

MV-4-11 = assay: Cell growth inhibition assay (CellTiter-Glo), MV-4-11; type: cell-based, human; conditions: MV-4-11 cells, 4 days; for GI50: Homo sapiens, MV4-11, 96 h, half-maximal growth inhibition; for MV-4-11 TGI: total growth inhibition
Method: (§2) Cell Growth Inhibition Assay
(§3) The human leukemia cell lines MV-4-11, THP-1 and K-562 were employed to characterize the effect of BET inhibitors on cellular proliferation and viability. Cells were obtained from the American Type Culture Collection (ATCC) and cultured at 37° C. in a humidified 5% CO2 incubator in the following media: MV-4-11: DMEM high glucose (Animed #1-26F01-I), 10% FCS (Animed #2-01F26-I), 4 mM L-Glutamine (Animed #5-10K50), 1 mM Sodium Pyruvate (Animed # G03625P), 1× Penicillin-Streptomycin (Animed # F12478P); K-562: Iscove's MEM (Animed #1-28F16-I), 10% FCS (Animed #2-01F26-I), 4 mM L-Glutamine (Animed #5-10K50), 1× Penicillin-Streptomycin (Animed # F12478P); THP-1: RPMI-1640 (Animed #1-41F01-I), 10% FCS (Animed #2-01F26-I), 2 mM L-Glutamine (Animed #5-10K50), 10 mM HEPES (Animed #5-31F100), 1 mM Sodium Pyruvate (Animed # G03625P), 1× Penicillin-Streptomycin (Animed # F12478P). The AML lines MV-4-11 and THP-1 are very sensitive to BET inhibitors and show massive cell death upon BET inhibition (Zuber et al., Nature, 478 (2011), 524-8). Compound-mediated suppression of cell proliferation/viability was assessed by quantification of cellular ATP levels using the CellTiter-Glo (CTG) reagent (Promega). Briefly, cells were seeded in 20 μl fresh medium into 384-well plates, followed by addition of 5 μL medium containing compound dilutions at 5-fold their final intended concentration. Dose-response effects were assessed by 3-fold serial dilutions of the test compound, starting at 10 μM. Following incubation of the cells for 4 days at 37° C. and 5% CO2, the effect of inhibitors on cell viability was quantified following addition of 20 μl CTG and luminescence quantification (integration time: 100 ms) as per vendor manual, using a correspondingly equipped Tecan M200 multi-mode platereader (TECAN, Switzerland). For data analysis, the assay background value determined in wells containing medium, but no cells, was subtracted from all data points. To enable differentiation of cytotoxic from cytostatic compounds, the number of viable cells is assessed relative to that observed at the time of compound addition using a separate cell plate (day 0). The effect of a particular test compound concentration on cell proliferation/viability is expressed as percentage of the background- and day 0-corrected luminescence reading obtained for cells treated with vehicle only (DMSO, 0.1% final concentration), which is set as 100%, whereas that luminescence reading for wells containing medium is set as −100%. Compound concentrations leading to half-maximal (IC50) and total growth inhibition (TGI) were determined using standard four parameter curve fitting.

THP-1 = assay: Cell growth inhibition assay (CellTiter-Glo), THP-1; type: cell-based, human; conditions: THP-1 cells, 4 days; for GI50: Homo sapiens, 96 h, half-maximal growth inhibition; for THP-1 TGI: total growth inhibition
Method: as §2, §3

K-562 = assay: Cell growth inhibition assay (CellTiter-Glo), K-562; type: cell-based, human; conditions: K-562 cells, 4 days; for GI50: Homo sapiens, K562, 96 h, half-maximal growth inhibition; for K-562 TGI: total growth inhibition
Method: as §2, §3

Chain of BRD3 (Q15059 20-477): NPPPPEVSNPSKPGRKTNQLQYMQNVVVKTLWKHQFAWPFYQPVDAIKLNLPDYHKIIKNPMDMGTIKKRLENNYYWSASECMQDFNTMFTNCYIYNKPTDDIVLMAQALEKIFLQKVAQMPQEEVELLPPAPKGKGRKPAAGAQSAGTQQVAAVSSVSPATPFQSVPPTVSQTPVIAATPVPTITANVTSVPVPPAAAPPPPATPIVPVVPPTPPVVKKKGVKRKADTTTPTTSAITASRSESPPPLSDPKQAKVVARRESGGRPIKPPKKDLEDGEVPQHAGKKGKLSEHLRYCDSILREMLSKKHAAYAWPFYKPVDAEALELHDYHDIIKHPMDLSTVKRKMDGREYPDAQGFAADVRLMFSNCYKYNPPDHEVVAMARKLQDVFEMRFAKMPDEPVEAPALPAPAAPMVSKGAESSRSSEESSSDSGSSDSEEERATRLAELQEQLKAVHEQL
Chain of CREBBP (Q92793 1081-1197): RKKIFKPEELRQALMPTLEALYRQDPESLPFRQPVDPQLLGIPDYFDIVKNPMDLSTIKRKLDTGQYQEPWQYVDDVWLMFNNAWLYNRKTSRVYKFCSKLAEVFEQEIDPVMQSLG

SMILES | IC50 (BRD4) [nM] | IC50 (BRD3) [nM] | IC50 (CREBBP) [nM] | GI50 (MV-4-11) [nM] | MV-4-11 TGI (MV-4-11) [nM] | GI50 (THP-1) [nM] | THP-1 TGI (THP-1) [nM] | GI50 (K-562) [nM] | K-562 TGI (K-562) [nM]
CC(=O)Nc1cn(C)c2c1C(=O)N(c1cc(C)c3nnn(C)c3c1)C2c1ccc(Cl)cc1 (stereo not drawn) [Example 113, N-(6-(4-chlorophenyl)-5-(1,4-dimethyl-1H-benzo[d][1,2,3]triazol-6-yl)-1-methyl-4-oxo-1,4,5,6-tetrahydropyrrolo[3,4-b]pyrrol-3-yl)acetamide] | 13 | 15 | 1600 | 13.6 | 27.25 | 12.9 | 30.35 | 72 | >10000
CNC(=O)Nc1cn(C)c2c1C(=O)N(c1cc(C)c3nnn(C)c3c1)C2c1ccc(Cl)cc1 (stereo not drawn) [Example 114, 1-(6-(4-chlorophenyl)-5-(1,4-dimethyl-1H-benzo[d][1,2,3]triazol-6-yl)-1-methyl-4-oxo-1,4,5,6-tetrahydropyrrolo[3,4-b]pyrrol-3-yl)-3-methylurea] | 34 | 38 | 1300 | 26.8 | 66 | 27.1 | 105.2 | 499 | >10000
Cc1cc(N2C(=O)c3c(NC(=O)CCN(C)C)cn(C)c3C2c2ccc(Cl)cc2)cc2c1nnn2C (stereo not drawn) [Example 115, N-(6-(4-chlorophenyl)-5-(1,4-dimethyl-1H-benzo[d][1,2,3]triazol-6-yl)-1-methyl-4-oxo-1,4,5,6-tetrahydropyrrolo[3,4-b]pyrrol-3-yl)-3-(dimethylamino)propanamide] | 26 | 36 | 3900 | 16.1 | 25.7 | 29.3 | 79 | 157 | >10000
Cc1cc(N2C(=O)c3c(NC(=O)CN(C)C)cn(C)c3C2c2ccc(Cl)cc2)cn2c(C)nnc12 (stereo not drawn) [Example 116, N-(6-(4-chlorophenyl)-5-(3,8-dimethyl-[1,2,4]triazolo[4,3-a]pyridin-6-yl)-1-methyl-4-oxo-1,4,5,6-tetrahydropyrrolo[3,4-b]pyrrol-3-yl)-2-(dimethylamino)acetamide] | 26 | 34 | 4200 | 37.8 | 87.45 | 59.5 | 123 | 288 | >10000
CC(=O)N1CC(c2cn(C)c3c2C(=O)N(c2cc(C)c4nnc(C)n4c2)C3c2ccc(Cl)cc2)C1 (stereo not drawn) [Example 117, 3-(1-acetylazetidin-3-yl)-6-(4-chlorophenyl)-5-(3,8-dimethyl-[1,2,4]triazolo[4,3-a]pyridin-6-yl)-1-methyl-5,6-dihydropyrrolo[3,4-b]pyrrol-4(1H)-one] | 14 | 17 | 13700 | 124 | 217.5 | 184 | 354 | 1490 | >10000
Cc1cc(N2C(=O)c3c(C4CN(C)C4)cn(C)c3C2c2ccc(Cl)cc2)cn2c(C)nnc12 (stereo not drawn) [Example 118, 6-(4-chlorophenyl)-5-(3,8-dimethyl-[1,2,4]triazolo[4,3-a]pyridin-6-yl)-1-methyl-3-(1-methylazetidin-3-yl)-5,6-dihydropyrrolo[3,4-b]pyrrol-4(1H)-one] | 21 | 22 | 32300 | 374 | 591.5 | 956 | 1810 | 3830 | >10000
Cc1cc(N2C(=O)c3c(C4CC4)c(C4=CCOCC4)n(C)c3C2c2ccc(Cl)cc2)cn2c(C)nnc12 (stereo not drawn) [Example 119, 6-(4-chlorophenyl)-3-cyclopropyl-2-(3,6-dihydro-2H-pyran-4-yl)-5-(3,8-dimethyl-[1,2,4]triazolo[4,3-a]pyridin-6-yl)-1-methyl-5,6-dihydropyrrolo[3,4-b]pyrrol-4(1H)-one] | < 11 | < 11 | 1700 | 1.24 | 3.76 | 1.57 | 3.665 | 11.7 | 3740
